System: wild type mice
Assay: 14 days of overload (synergist ablation of GTN and SOL) with daily injection of SIRT1 inhibitor; plantaris muscle hypertrophy
Type: in vivo
Description: The plantaris (PLN) muscle in test subjects was overloaded by removal of the gastrocnemius (GTN) and soleus (SOL) muscles, termed synergist ablation. Briefly, test animals were anaesthetized and the area above the incision shaved and sterilized. The SOL and GTN were isolated and severed at the Achilles tendon. The complete SOL and the distal two thirds of the GTN were removed leaving the PLN muscle and their blood and nerve supply intact. The overlying skin was sutured with 6-0 vicryl and the animal was then given the analgesic and moved to a temperature-controlled environment to recover. […] Animals were monitored on a daily basis for signs of pain or post-operative infection. […] On the day of collection, animals were anaesthetized and overloaded and contralateral control muscles were rapidly removed, rinsed in PBS, all connective/scar tissue was removed using a dissection microscope, then the muscles were snap frozen in liquid nitrogen, and stored at −80° C. until processed.
To determine whether the effect of SIRT1 on overload-induced muscle hypertrophy required genetic ablation or whether pharmacological ablation of SIRT1 activity could mimic the effect of the knockout, GTN and SOL muscles of wild type mice were removed and half of the mice received daily injections of the SIRT1 inhibitor Splitomycin. There were 14 days of overload performed in wild type mice concurrent with daily injection of either saline (CON) or Splitomycin (Split).

With `O=C1CCc2c(ccc3ccccc23)O1` [Splitomycin] the “effectiveness of therapeutic dose (in words)” value (25 mg/kg body weight per day) was “effective”, the “effect on basal muscle mass” value (14 days of daily injection) was “without affecting basal muscle mass” and the “effect on muscle hypertrophy (in words)” value (wild type mice, 14 days of overload, daily injection, saline (CON) vs Splitomycin (Split), FIG. 6) was “increases muscle hypertrophy”. For the same molecule, the “more muscle hypertrophy than vehicle (saline) injection” value (wild type mice, 14 days of overload, daily injection, versus saline/vehicle (FIG. 6)) was 65%.
